Patent US20040198833A1, “Acetylenic sulfonamide derivatives” (priority 2000, published 2004)

melting point: 92 to 93 °C
Compound: CC(C)S(=O)(=O)NCC(C)(F)c1ccc(C#CCCCCO)cc1 (stereo not shown) [Example 11, {2-fluoro-2-[4-(6-hydroxyhex-1-ynyl)phenyl]propyl}[(methylethyl)sulfonyl]amine]
